Measured values published in patent US20060193781A1, “Magnetic resonance imaging of metal concentrations” (priority 2002, published 2006).
Where two headings read alike, the source gives them in different places.

How the values were obtained:
[1] = for T2 bound / T2 free: 2 mM complexing agent, 400 MHz, 25° C.
Description: All fluorine NMR spectra were collected with a 400 MHz Oxford/Varian Unity Plus spectrometer at 25° C. The nominal 90° pulse width was 7.8 μsec. Transverse relaxation times were determined by the best fit of data collected using the Carr-Purcell-Meiboom-Gill sequence supplied with the spectrometer.
A 1 M solution of Ultra Pure ZnCl2 (Sigma) was prepared and diluted in a serial fashion to produce intermediate stock solutions of concentration 100 mM and 10 mM in water. A 200 mM solution of 5-T-BAPTA (Molecular Probes) was prepared and added to aliquots of either zinc solution, as appropriate, in sufficient quantity to yield a final, fixed concentration of 2 mM of the complexing agent.

[2] = Fluorine nuclear relaxation times T1 and T2 and chemical shift of 5F-BAPTA with and without zinc, in water and octanol; assay type: physicochemical
Description: All fluorine NMR spectra were collected with a 400 MHz Oxford/Varian Unity Plus spectrometer at 25° C. The nominal 90° pulse width was 7.8 μsec.
An equivalent volume (0.7 ml) n-octanol was added, and the mixture was shaken vigorously. The organic and aqueous phases were separated by pipette and placed in NMR tubes. To the octanol solution was added 0.1 ml deuterated methanol to provide an NMR lock signal.

[3] = Sample 2: ZnCl2 0.5 mM, MgCl2 1.5 mM
[4] = aqueous solution of the zinc complex
[5] = aqueous solution without zinc, HEPES buffer, 400 MHz, 25° C.

SMILES | T2 bound ([1]; Sample 1: ZnCl2 2.0 mM, MgCl2 1.0 mM, CaCl2 2.0 mM) [s] | T2 of the complex (Sample 1) relative to T2 of the free complexing agent (Sample 3) ([1]; Sample 1 vs Sample 3) | T2 bound [1, 3] [s] | T2 free [1, 3] [s] | T2 free ([1]; Sample 3: ZnCl2 0 mM, MgCl2 1.65 mM, CaCl2 3.35 mM) [s] | T2 bound ([1]; Sample 4: ZnCl2 3.5 mM, MgCl2 0.5 mM, CaCl2 1.0 mM) [s] | change of fluorine transverse relaxation time upon complexation with Zn^+2 [2] | T1 value [2, 4] [s] | T2 value [2, 4] | T1 value [2, 5] [s] | T2 value [2, 5] [s] | T2 value ([2]; zinc complex in octanol) [s] | T1 value ([2]; zinc complex in octanol solution) [s]
O=C(O)CN(CC(=O)O)c1ccc(C(F)(F)F)cc1OCCOc1cc(C(F)(F)F)ccc1N(CC(=O)O)CC(=O)O [5T-BAPTA, 1,2-bis-(2-amino-5-trifluoromethylphenoxy)ethane-N,N,N′,N′-tetra acetic acid] | 0.14 ± 0.03 | ⅕ | 0.265 ± 0.025 | 0.387 ± 0.012 | 0.763 ± 0.032 | 0.216 ± 0.007 |  |  |  |  |  |  | 
O=C(O)CN(CC(=O)O)c1ccc(F)cc1OCCOc1cc(F)ccc1N(CC(=O)O)CC(=O)O [5F-BAPTA, 1,2-bis-(2-amino-5-fluorophenoxy)ethane-N,N,N′,N′-tetraacetic acid] |  |  |  |  |  |  | large reduction | 0.82 ± 0.01 | 0.0248±0.0003 | 0.82 ± 0.01 | 0.080 ± 0.003 | 0.013 ± 0.001 | 0.53 ± 0.01
